Experimental findings from the Kinase Knowledgebase extract (Sharma et al. 2016) are described below.

Each structure is given as a SMILES string. Values joined by “and” are separate entries in the source; they are usually repeats but may differ in a detail not shown here. Equal entries are not always repeated. Some results are limits rather than exact numbers.

Chain of PIK3CA (human) (P42336 whole entry, looked up): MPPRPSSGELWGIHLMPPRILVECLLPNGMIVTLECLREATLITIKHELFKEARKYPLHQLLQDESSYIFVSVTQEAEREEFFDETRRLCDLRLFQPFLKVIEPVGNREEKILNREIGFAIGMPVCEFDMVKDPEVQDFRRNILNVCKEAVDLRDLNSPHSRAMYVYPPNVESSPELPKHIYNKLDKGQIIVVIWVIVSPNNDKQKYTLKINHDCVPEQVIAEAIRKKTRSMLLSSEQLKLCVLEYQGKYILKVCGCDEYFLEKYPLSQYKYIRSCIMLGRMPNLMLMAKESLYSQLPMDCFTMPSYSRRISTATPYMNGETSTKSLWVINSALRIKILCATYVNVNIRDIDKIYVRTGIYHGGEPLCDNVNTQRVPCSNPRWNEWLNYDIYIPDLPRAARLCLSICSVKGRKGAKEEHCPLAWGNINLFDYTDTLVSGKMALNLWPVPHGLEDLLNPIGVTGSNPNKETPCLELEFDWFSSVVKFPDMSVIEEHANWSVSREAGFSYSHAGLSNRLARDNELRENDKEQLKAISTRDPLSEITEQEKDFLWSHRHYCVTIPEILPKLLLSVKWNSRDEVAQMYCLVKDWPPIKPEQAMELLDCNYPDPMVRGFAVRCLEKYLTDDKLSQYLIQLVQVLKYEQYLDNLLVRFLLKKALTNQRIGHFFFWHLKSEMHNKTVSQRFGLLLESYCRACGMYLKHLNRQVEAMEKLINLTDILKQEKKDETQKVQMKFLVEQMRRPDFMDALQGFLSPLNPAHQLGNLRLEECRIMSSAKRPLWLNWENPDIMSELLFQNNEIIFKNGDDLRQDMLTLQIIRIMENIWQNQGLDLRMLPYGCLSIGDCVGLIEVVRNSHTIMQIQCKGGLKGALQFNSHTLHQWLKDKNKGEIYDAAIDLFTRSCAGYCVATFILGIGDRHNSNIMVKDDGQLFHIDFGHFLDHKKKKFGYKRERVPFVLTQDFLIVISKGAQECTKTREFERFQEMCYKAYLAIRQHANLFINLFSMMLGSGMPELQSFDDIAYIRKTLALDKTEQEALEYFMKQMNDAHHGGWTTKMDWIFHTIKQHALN

One assay concerns the target CDK2 (UniProt P24941). Briefly: Enzyme Assay.
Conditions: not given
One may read the IC50 as the concentration at which inhibition is half-maximal. Lower therefore signals inhibition by little substance. Regarding `FC(F)(F)c1cnc(Nc2ccc3[nH]cnc3c2)nc1Nc1ccc2[nH]cnc2c1`, the IC50 amounted to 19 nM. That is a double-digit nanomolar value.
Regarding `Cc1ccc2ncc(C3=C(c4cn5c6c(cccc46)CN(C(=O)N4CCCCC4)CC5)C(=O)NC3=O)n2c1`, the IC50 is more than 20000 nM.

The assay is the same for the next values; noted with them: concentration not given here.
In general, inhibition refers to the drop in the measured response relative to a control, in per cent. For `Nc1n[nH]c(N)c1N=Nc1ccc(O)cc1`, the activity came to 31% and the inhibition was determined as 69%.

In another assay the target is MAPK14 (UniProt Q16539). The assay can be described thus: Inhibition of MAPK14 Kinase Activity.
Chain of MAPK14 (Q16539 whole entry, looked up): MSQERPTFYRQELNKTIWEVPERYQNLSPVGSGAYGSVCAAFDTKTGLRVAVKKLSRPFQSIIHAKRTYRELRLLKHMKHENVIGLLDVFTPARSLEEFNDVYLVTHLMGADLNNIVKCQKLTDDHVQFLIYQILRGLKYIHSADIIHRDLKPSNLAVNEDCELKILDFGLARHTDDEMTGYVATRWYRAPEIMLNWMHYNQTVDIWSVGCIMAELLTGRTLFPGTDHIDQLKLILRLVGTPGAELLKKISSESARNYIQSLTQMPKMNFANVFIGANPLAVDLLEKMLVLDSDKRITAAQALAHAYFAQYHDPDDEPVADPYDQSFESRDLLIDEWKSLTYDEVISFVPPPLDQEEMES
Conditions: not given
For the compound `CNc1nc(C)c(-c2ccnc(Nc3ccc(N4CCOCC4)cc3)n2)s1`, the IC50 is more than 100000 nM.
Same read-out and setting: for `FC(F)(F)c1cnc(Nc2ccc3[nH]cnc3c2)nc1Nc1ccc2[nH]cnc2c1` the value was more than 1000 nM; for `CCS(=O)(=O)c1ccc(OC)c(Nc2ncc(-c3cccc(-c4ccccc4Cl)c3)o2)c1`, more than 10000 nM; for `Cc1cccc(Cl)c1Nc1nc2ccc(N3CCN[C@@H](C)C3)nc2n2cncc12`, 380 nM.
As for `CSc1nc(-c2ccc(F)cc2)c(-c2ccncc2)[nH]1`, the IC50 came out at 630 nM.
Same read-out and setting: for `CC(C)Nc1ncc2cc(Oc3ccc(F)cc3F)ccc2n1` the value was less than 30 nM; for `COc1cc2ncnc(Nc3cc(NC(=O)c4cccc(N(C)C)c4)ccc3C)c2cc1OC`, 31 nM; for `C[C@@H](C(=O)O)N1CCC(c2cc3c(ccc(=O)n3-c3c(Cl)cccc3Cl)c(-c3ccc(F)cc3Cl)n2)CC1`, 1.3 nM.
On the same count and under the same terms, for `CCn1c(=O)n(CC)c2cc(-c3[nH]c(-c4ccc(S(C)(=O)=O)cc4)nc3-c3ccc(F)cc3)ccc21` the value was 4000 nM.
Same read-out and setting: for `OCC(O)CNc1ncc2cc(Oc3ccc(F)cc3F)ccc2n1` (centres undefined) the value was less than 2000 nM; for `Cc1nc(NC(=O)[C@H](N)[C@@H](C)O)sc1-c1ccnc(Nc2cccc([N+](=O)[O-])c2)n1`, more than 100000 nM.
In the case of `O=C(c1cccc2[nH]ccc12)N1CCN(Cc2ccccc2)CC1`, the IC50 worked out at 1540 nM.
The same measure, in the same setting: the value for `CCOc1ccc2nc(NC(CCO)CCO)ncc2c1` was more than 10000 nM; that for `COc1ccc(Nc2nc(Nc3ccc4nc[nH]c4c3)ncc2C(F)(F)F)cc1` was more than 1000 nM; that for `NC(=O)c1cc(Cl)c(N2C(=O)NCc3nc(Sc4ccc(F)cc4)ccc32)c(Cl)c1` was 23 nM.
Still for that read-out and setting: the value for `CCOc1cc2cnc(NC3CCN(S(C)(=O)=O)CC3)nc2n(C)c1=O` was 58 nM.
Still for that read-out and setting: the value for `CS(=O)(=O)N1CCC(Nc2ncc3cc(Oc4ccc(F)cc4F)ccc3n2)CC1` was less than 1 nM.
For the compound `CC[C@@H](N)C(=O)Nc1nc(C)c(-c2ccnc(Nc3cccc([N+](=O)[O-])c3)n2)s1`, the IC50 was more than 100000 nM.
On to `COc1cc2ncnc(Nc3cccc(NC(=O)c4ccccc4)c3)c2cc1OC`, for which the IC50 is 141 nM.
On the same count and under the same terms, for `O=C(c1ccc2cc[nH]c2c1)N1CCN(Cc2ccccc2)CC1` the value was 5520 nM; for `Cc1ccc2ncc(C3=C(c4cn5c6c(cccc46)CN(C(=O)N4CCCCC4)CC5)C(=O)NC3=O)n2c1`, more than 20000 nM.
Same read-out and setting: the value for `Cc1ccccc1C(=O)c1ccc(Nc2cncc3ccccc23)cc1Cl` was 12.8 nM; that for `O=C(c1c[nH]c2ccccc12)N1CCN(Cc2ccccc2)CC1` was 4740 nM.
On to `COc1cc2cnc(NC3CCOCC3)nc2n(C)c1=O`, for which the IC50 turned out to be 1600 nM. This IC50 is about 3-fold lower than that of the compound before.
Still for that read-out and setting: for `CCOc1cc2cnc(NC(CCOC)CCOC)nc2[nH]c1=O` the value was 7700 nM; for `FC(F)(F)c1cnc(Nc2ccc3nc[nH]c3c2)nc1Nc1ccccc1Cl`, more than 1000 nM; for `O=c1ncn2nc(Sc3ccc(F)cc3)ccc2c1-c1c(Cl)cccc1Cl`, 100 nM.
On the same count and under the same terms, for `O=c1ncn2nc(Sc3ccccc3Br)ccc2c1-c1c(Cl)cccc1Cl` the value was 250 nM; for `FC(F)(F)c1cnc(Nc2ccc(Br)cc2)nc1Nc1ccc2nc[nH]c2c1`, more than 1000 nM.
The same measure, in the same setting: the value for `C[C@H](C(=O)O)N1CCC(c2cc3c(ccc(=O)n3-c3c(Cl)cccc3Cl)c(-c3ccc(F)cc3Cl)n2)CC1` was 3.2 nM.
Regarding `Cc1ccc(Sc2ccc3c(-c4c(Cl)cccc4Cl)c(=O)ncn3n2)c(C)c1`, the IC50 was 264 nM.
Still for that read-out and setting: the value for `CCC(CO)(CO)Nc1ncc2cc(Oc3ccc(F)cc3F)ccc2n1` was less than 100 nM; that for `CNC(=O)c1cc(Oc2ccc(NC(=O)Nc3ccc(Cl)c(C(F)(F)F)c3)c(F)c2)ccn1` was 24 nM; that for `Cc1cccc(-c2n[nH]cc2-c2ccc(O)cc2)n1` was 31 nM.
Same read-out and setting: for `Cc1cccc(-n2nnnc2-c2ccc3c(c2)n(C)c(=O)n3C)c1` the value was 14400 nM.
With `CC(C)(CO)Nc1nccc(CCc2c[nH]c3ccc(N)cc23)n1`, the IC50 amounted to 1500 nM.
On the same count and under the same terms, for `CNc1nc(C)c(-c2ccnc(Nc3ccc(N4CCN(Cc5ccccc5)CC4)cc3)n2)s1` the value was more than 100000 nM; for `Cc1nc(N)sc1-c1ccnc(Nc2ccc(N3CCOCC3)cc2)n1`, more than 100000 nM.
Compound `CSc1nc(-c2ccnc(NC(C)c3ccccc3)c2)c(-c2ccc(F)cc2)n1C` (centres undefined) registered an IC50 of 27000 nM.

Staying with this assay, now noted: concentration not given here.
For the compound `NC(=O)c1cccc(Cl)c1N1C(=O)NCc2nc(Sc3ccc(F)cc3)ccc21`, the inhibition stood at 46%.
The same measure, in the same setting: for `Nc1n[nH]c(N)c1N=Nc1ccc(O)cc1` the value was 18%; for `O=C1NCc2nc(Sc3ccc(Sc4ccc(F)cc4)cc3)ccc2N1c1c(Cl)cccc1Cl`, -6%.

The next assay deals with MAPK14 (human) (UniProt Q16539). Briefly: Inhibition of MAPK14 Kinase Activity. The conditions noted are these: concentration not given here.
Chain of MAPK14 (human) (Q16539 whole entry, looked up): as above
As for `Nc1n[nH]c(N)c1N=Nc1ccc(O)cc1`, the activity was 82%.

The target is the same in a further assay. Briefly: Assessment of MAPK14 Kinase Activity.
Conditions: not given
Take `CSc1nc(-c2ccc(F)cc2)c(-c2ccncc2)[nH]1`: the IC50 is 69 nM and 70 nM.

A further assay concerns the target PIK3CA (human) (UniProt P42336). Briefly: Assessment of PIK3CA Kinase Activity.
Conditions: not given
`CC(C)(C)COC(=O)NCc1ccc(NC(=O)Nc2ccc(-c3nc(CS(C)(=O)=O)cc(N4CC5CCC(C4)O5)n3)cc2)cc1`: the IC50 came out at 1930 nM. In other words, the single-digit micromolar range.
As to `NCC(=O)N1CCN(c2cc(N3CCOCC3)nc(-n3c(C(F)F)nc4ccccc43)n2)CC1`, the IC50 turned out to be 100 nM.
On the same count and under the same terms, the value for `NCC(=O)N1CC=C(c2cc(N3CCOCC3)nc(-n3c(C(F)F)nc4ccccc43)n2)CC1` was 100 nM.
Still for that read-out and setting: the value for `O=C(Nc1cccc(-c2cc(N3CCOCC3)nc(-c3cccc(CO)c3)n2)c1)C1CCNCC1` was 100 nM.
`Cc1nc(N)nc(-c2c(Nc3ccn[nH]3)nc3ccc(CCC(O)CO)cn23)n1` (centres undefined): the IC50 worked out at 170 nM.
Still for that read-out and setting: the value for `CN(C(=O)c1cc2c(s1)-c1ccccc1OC2)c1ccccc1F` was 254 nM; that for `NC(=O)[C@@H]1CCCCN1C1CCN(c2nc(N3CCOCC3)cc(-n3c(C(F)F)nc4ccccc43)n2)CC1` was 600 nM.
On the same count and under the same terms, the value for `NCC(=O)N1CCN(c2nc(N3CCOCC3)cc(-n3c(C(F)F)nc4ccccc43)n2)CC1` was 100 nM.
As to `CS(=O)(=O)Cc1cc(N2CCOCC2)nc(-c2ccc(NC(=O)c3ccno3)cc2)n1`, the IC50 was more than 100000 nM.
Still for that read-out and setting: the value for `O=C(Nc1ccc(F)cc1)Nc1ccc(-c2nc(N3CCOCC3)nc(N3C4CCC3COC4)n2)cc1` was 39 nM; that for `O=C(Nc1cccc(-c2cc(N3CCOCC3)nc(-c3cccc(O)c3)n2)c1)C1CCCNC1` (centres undefined) was 100 nM.
The same measure, in the same setting: for `Nc1ncc(-c2nc(N3CCOCC3)nc3c2CCN3c2ccc(CN3CCN(CCCCF)CC3)cc2)cn1` the value was 20 nM.
On the same count and under the same terms, for `NCc1ccc(NC(=O)c2cccc(-c3cc(N4CCOCC4)nc(-c4cccc(CO)c4)n3)c2)cc1` the value was 100 nM; for `NC(=O)c1ccc(NC(=O)Nc2ccc(-c3cc(N4CC5CCC(C4)O5)nc(-c4ccc(NC(=O)Nc5ccc(C(N)=O)cc5)cc4)n3)cc2)cc1`, 44.5 nM.
As for `CCC1(O)CCN(c2ncnc(C)c2C#Cc2ccc(N)nc2)CC1`, the IC50 was determined as 15 nM. Compared with the last compound, the IC50 is about 3-fold lower.
`CCNC(=O)Nc1ccc(-c2nc(N3CCO[C@H](C)C3)c3cnn(C4CCN(C(=O)OCC)CC4)c3n2)cc1` came in with an IC50 of 4360 nM.
As to `Cn1c(=NC#N)n(-c2ccc(C(C)(C)C#N)nc2)c2c3cc(-c4ccnc(N5CCOCC5)c4Cl)ccc3ncc21`, the IC50 is 10 to 1000 nM.
Same read-out and setting: for `CCNC(=O)Nc1ccc(-c2nc(N3CCO[C@@H](C)C3)c3cnn(C4CCN(C(=O)OCC)CC4)c3n2)cc1` the value was 553 nM; for `CCOC(=O)N1CCC(n2ncc3c(N4CCO[C@@H](C)C4)nc(-c4ccc(NC(=O)Nc5ccncc5)cc4)nc32)CC1`, 18 nM.
Still for that read-out and setting: for `COc1cccc(Nc2nc(-c3cccc4onc(N)c34)nc3c2cnn3C)c1OC` the value was 1.7 nM.
Same read-out and setting: for `CCOC1CCN(c2ncnc(CC)c2C#Cc2ccc(N)nc2)CC1` the value was 77 nM; for `OCc1cccc(-c2cc(-n3c(C(F)F)nc4ccccc43)nc(N3CCOCC3)n2)c1`, 300 nM; for `COc1cccc2c1nc(C(F)F)n2-c1nc(N2CCOCC2)cc(N2CCN(C(=O)CN)CC2)n1`, 20 nM.
For the compound `NCC(=O)N1CCC(c2cc(N3CCOCC3)nc(-n3c(C(F)F)nc4ccccc43)n2)CC1`, the IC50 came out at 300 nM.
The same measure, in the same setting: for `NC(=O)[C@@H]1CCCN1CC(=O)N1CCN(c2nc(N3CCOCC3)cc(-n3c(C(F)F)nc4ccccc43)n2)CC1` the value was 200 nM.
For orientation: Ki means the dissociation constant of the complex between target and ligand, obtained from inhibition or displacement. Low readings indicate a stronger hold on the target, high ones a looser hold on the target. Turning to `COCCOc1cnc(Nc2cnc(Cl)c(NS(C)(=O)=O)c2)c(-c2nc(C)nc(N)n2)c1`, the Ki amounted to 25 nM.
On to `O=C(Nc1cccc(-c2cc(N3CCOCC3)nc(-c3cccc(CO)c3)n2)c1)N1CCNCC1`, for which the IC50 is 300 nM.
Same read-out and setting: for `Cc1nc(N)cc(n1)C2=C(Nc3cc[nH]n3)NC4=N2N=CC=C4` the value was 830 nM; for `COc1cccc(Nc2nc(-c3cccc4[nH]nc(N)c34)nc3c2cnn3C)c1OC`, 11 nM.
Still for that read-out and setting: the value for `NCCC1CCN(c2nc(N3CCOCC3)cc(-n3c(C(F)F)nc4ccccc43)n2)CC1` was 200 nM.
Turning to `CCOC(=O)N1CCC(n2ncc3c(N4CCO[C@@H](C)C4)nc(-c4ccc(NC(=O)NCCF)cc4)nc32)CC1`, the IC50 stood at 521 nM.
On the same count and under the same terms, for `Cc1ncnc(N2CCC(=O)CC2)c1C#Cc1ccc(N)nc1` the value was 104 nM; for `O=C(Nc1ccc(-c2cc(-n3c(C(F)F)nc4ccccc43)nc(N3CCOCC3)n2)cc1)[C@@H]1CCCCN1`, 2300 nM; for `CCOC(=O)N1CCC(n2ncc3c(N4CCO[C@H](C)C4)nc(-c4ccc(NC(=O)NCCF)cc4)nc32)CC1`, 4550 nM.
Same read-out and setting: for `CCOC(=O)N1CCC(n2ncc3c(N4CCO[C@H](C)C4)nc(-c4ccc(NC(=O)Nc5ccncc5)cc4)nc32)CC1` the value was 517 nM.
Same read-out and setting: for `CCc1ncnc(N2CCC3(CCN(C)CC3)CC2)c1C#Cc1ccc(N)nc1` the value was 136 nM; for `CCc1ncnc(N2CCC(O)(CC)CC2)c1C#Cc1ccc(N)nc1`, 50 nM; for `Cc1ncnc(N2CCC(C)(O)CC2)c1C#Cc1ccc(N)nc1`, 38 nM.
`Cc1nc(NCC(=O)N(C)C)cc(-c2c(Nc3ccn(C)n3)nc3cccnn23)n1` gave an IC50 of 20100 nM.
The compound `Cc1nc(N)nc(-c2cc(Cl)cnc2Nc2cnc(Cl)c(NS(=O)(=O)N(C)C)c2)n1` had a Ki of 12 nM.
Same read-out and setting: for `NC(=O)[C@@H]1CCCN1C(=O)Nc1nc2ccc(-c3cnc(N)c(C(F)(F)F)c3)cc2s1` the value was 40 nM.
